Data set [1] concerns SH-SY5Y cells. Description: Intracellular Ca content by ICP-MS, dark or green light. It counts as cell-based. To be noted: kept in the dark. As to the method:
Six hours after compound addition, the cells were irradiated with green light or kept in the dark. Intracellular Ca^2+ levels were then assessed by ICP-MS 24 h after light activation. The NMDA and α-amino-3-hydroxy-5-methyl-4-isoxazole propionic acid (AMPA) receptors being glutamate-gated cation channels allow for an increase of calcium permeability of the neuron membrane; we also used L-glutamic acid (GA, 10 μM), a known NMDA and AMPA activator, as positive control in this assay.
(§1) 1 mL of SH-SY5Y cells were seeded in 12-well plates (Greiner, No. 665180; 500.000 cells per well). […] After an additional 24 h of incubation, the cells were trypsined, collected, and centrifuged. The resulting cell pellet was dissolved in 1 mL of PBS and counted via a BioRad TC20 automated cell counter. Afterward, the solution was centrifuged and washed again with PBS with subsequent centrifuging two more times. The resulting cell pellet was digested in 0.5 mL of HNO3 overnight in a hot oven (90 °C). The solution was diluted with Milli-Q water to 10 mL, and the Ru and Ca content [ppb] was measured via ICP-MS.

For data set [2], the system named is SH-SY5Y cells. Description: Cytotoxicity, SRB end-point assay, dark or green light. It counts as cell-based.
The next data set has as its system U-87MG cells. The data set is described as follows: Ru cellular uptake by ICP-MS. To be noted: 10 μM; for Ru cellular uptake: dark. It counts as in vitro ADME. An excerpt:
The cellular accumulation of Ru^2+ can provide additional information about how differences in anticancer efficacy may relate to the amount of the Ru prodrug in the cell before light activation. For instance, low uptake often leads to limited cytotoxicity due to limited access to the drug target. […] Similar results have been observed in A549 lung cancer cells previously.[56] […] For unknown reasons, it appears that the amine bridge in the i-diqa ligand facilitates the uptake of ruthenium compound [3](PF6)2.
Materials: 65% nitric acid (Suprapur, Merck) was used in the sample digestion process, while diluted 1% nitric acid (v/v) was employed as a carrying solution throughout the ICP measurements. For preparation of calibration and internal standards, National Institute of Standards and Technology (NIST)-traceable 1000 mg/L elemental standards were used (TraceCERT, Fluka). Approximately 18 MΩ cm^–1 water (Milli-Q) was employed in all sample preparation and analysis steps.
Instrumentation: Calibration standards were prepared in a Secuflow fume hood (SCALA) to prevent contamination by atmospheric particulates. The standard samples and measurement samples were analyzed for trace elements using the NexION 2000 (PerkinElmer) ICP-MS instrument equipped with a concentric glass nebulizer and a Peltier-cooled glass spray chamber. An SC2 DX autosampler (PerkinElmer) was connected to ICP-MS for sample introduction. Syngistix software for ICP-MS (v.2.5, PerkinElmer) was used for all data recording and processing. Five trace elemental calibration standards for ICP-MS analysis were prepared using NIST-traceable 1000 mg/L Ru standards: 0, 1, 5, 20, and 100 μg/L. Samples were analyzed without dilution in the original delivery containers to minimize the possibility of contamination. Here, 10 μg/L Rh and In were used as internal standards. To check the calibration, samples were analyzed with a blank measurement and a repeat measurement with one of the calibration standards.
Sample preparation: 1 mL of U-87MG cells were seeded in 12-well plates (Greiner, No. 665180; 400.000 cells per well). […] Afterward, the cells were trypsined, collected, and centrifuged. The resulting cell pellet was dissolved in 1 mL of PBS and counted via a BioRad TC20 automated cell counter. Afterward, the solution was centrifuged and washed again with PBS with subsequent centrifuging. This washing step was repeated twice. The resulting cell pellet was digested in 0.5 mL of 65% HNO3 overnight in a hot oven (90 °C). The solution was diluted with Milli-Q water to 10 mL, and the Ru content [ppb] was measured by ICP-MS.

In a further data set the target is AChE (Electrophorus electricus, UniProt O42275). An excerpt: Among all enzymes involved in transmembrane signaling, another important one is AChE. In a modified procedure (for further details, see the Experimental Section), we checked whether the ruthenium complexes were able to inhibit AChE in the dark and after light activation. The colorimetric assay used Ellman’s reagent. […] The conversion of 5,5′-dithiobis(2-nitrobenzoic acid) (DTNB) to yellow 2-nitro-5-thiobenzoate (TNB) initiated by the addition of acetylthiocholine was then detected by UV–vis spectroscopy every 5 min for a total time of […]. […] The solution was further diluted 1:50 in 50 mM Tris buffer, pH = 8 (10 μL in 490 μL), and then placed in 4.5 mL of 50 mM Tris buffer, pH = 8. […] 50 μL of the enzyme and 50 μL of the complex solution were added to a 96-well plate in triplicates. […] Meanwhile, a 10 mM solution of acetylthiocholine iodide and 10 mM DTNB was prepared. After the respective time, in each well, 5 μL of the acetylthiocholine iodide and DTNB mixture was added. The absorbance was read at a microplate Tecan reader at 410 nm every 5 min for in total 40 min.
Sequence of AChE (O42275 24-633): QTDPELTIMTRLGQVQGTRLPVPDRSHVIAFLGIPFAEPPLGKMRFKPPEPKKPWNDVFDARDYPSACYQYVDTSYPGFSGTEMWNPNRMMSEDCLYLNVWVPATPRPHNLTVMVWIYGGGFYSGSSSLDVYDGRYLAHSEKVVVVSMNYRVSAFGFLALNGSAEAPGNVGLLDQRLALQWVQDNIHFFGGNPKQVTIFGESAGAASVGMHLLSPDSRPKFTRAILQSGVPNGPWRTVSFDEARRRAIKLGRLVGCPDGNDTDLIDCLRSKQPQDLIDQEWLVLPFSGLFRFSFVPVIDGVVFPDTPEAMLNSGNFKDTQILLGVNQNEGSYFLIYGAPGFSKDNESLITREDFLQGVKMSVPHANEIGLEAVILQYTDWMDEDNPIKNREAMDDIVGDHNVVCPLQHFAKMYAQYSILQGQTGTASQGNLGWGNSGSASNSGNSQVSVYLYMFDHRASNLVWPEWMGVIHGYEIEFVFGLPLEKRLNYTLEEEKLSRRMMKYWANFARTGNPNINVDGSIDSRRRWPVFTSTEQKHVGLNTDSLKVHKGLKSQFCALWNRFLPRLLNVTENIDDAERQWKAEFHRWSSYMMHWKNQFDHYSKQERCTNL

Data set [3] concerns SH-SY5Y cells. The data set is described as follows: Ru cellular uptake by ICP-MS, dark or green light. The data set is classed as in vitro ADME. To be noted: 20 μM, kept in the dark. How it is done:
These surprising results led us to further investigate whether the uptake of the respective compounds plays a pivotal role in the alternation of the proliferation. […] The complex was allowed to incubate for 24 h after irradiation before the ruthenium cellular content was analyzed by ICP-MS. […] We finally decided to incubate the SH-SY5Y cells with the EC50 values obtained from the cytotoxicity experiment using the U-87MG cell, as those procedures would allow one to observe the effect of the prodrug on the healthy neuron-like cells when treated with the phototoxic compound dose. […] Overall, cellular uptake in neuron-like SH-SY5Y cells followed the same trends as those for GBM cells U-87MG in the dark, while uptake was much higher after light activation.
as §1

The test system of data set [4] is U-87MG glioblastoma cells. Description: Cytotoxicity, SRB end-point assay, dark or green light. To be noted: read-out: EC50,D, kept in the dark, 24 h + 48 h incubation, normoxic (21% O2).
A short description of data set [5]: Stability in the dark in the presence of L-glutathione (UV-vis). The data set is classed as physicochemical. As to conditions: water, 37 °C, 500 μM L-glutathione, spectra after 2 and 24 h. As to the method:
The synthesis and characterization of all three complexes have been described earlier and can be found in refs ([56]) and ([57]). In water or OptiMEM cell medium, the complexes were also previously found to be stable in the dark for at least 24 h at 37 °C. Upon blue or green light irradiation (λ = 452 or 517 nm), they are activated by photosubstitution of the thioether ligand to afford the aqua ruthenium complex and the free thioether ligand.[56] […] The UV–vis spectra were then recorded after 2 and 24 h separately. […] Additionally, we could not observe any color change, which is typical when one of the ligands is exchanged against another one.
UV–vis spectroscopy experiments were performed on a Cary 60 Varian spectrometer equipped with a temperature control set to 310 K and a magnetic stirrer. The measurements were performed in a quartz cuvette containing 3 mL of solution. […] Then, the UV–vis spectrum was recorded without the presence of GSH. After 4 min, GSH was added (0.5 mM) and UV–vis spectra were recorded directly after and after 2 and 24 h, while the vial was kept in the dark and at 37 °C.

The subject of data set [6] is A549 lung cancer cell lines. More on the design: method as in PMID 31625740, PMID 29220545, PMID 34378103. To be noted: cited from earlier work.
In another data set the test system is A375 skin melanoma. More on the design: method as in PMID 31625740, PMID 29220545, PMID 34378103. As to conditions: cited from earlier work.
Data set [7] deals with U-87MG glioblastoma cells. Description: Cytotoxicity determined by MTT (3 mg/mL). The data set is classed as cell-based. To be noted: Homo sapiens, dark.

“And” between values parts separate entries of the source, which are not always exact repeats. Identical values can stand only once. A value given as a limit tells only on which side of the number the result lay.

For `N[C@@H](CCC(=O)O)C(=O)O` [L-glutamic acid, reference compound], the “Ca uptake, Dark” value with SH-SY5Y cells [1] (10 μM) was determined as 322.84± 53 ng Ca/mio. cells; in the data set on SH-SY5Y cells [1] (10 μM, listed as Glutamate), 322 ng Ca/mio. cells.
As usually defined, the EC50 is the concentration at which the effect is half-maximal. One may read the IC50 as the concentration at which inhibition is half-maximal. As for `CSCCO.F[P-](F)(F)(F)(F)F.F[P-](F)(F)(F)(F)F.[Ru+2].c1ccc(-c2cccc(-c3ccccn3)n2)nc1.c1ccc(-c2ccccn2)nc1` [[1](PF6)2], the “concentration required to block cell growth” value with SH-SY5Y cells [2] (in the dark) is above 40 µM. The EC50 is above 100 µM in the data set with SH-SY5Y cells [2] (kept in the dark, SRB, normoxic (21% O2)) and above 100 µM in data set [4]. The Uptake in % is given as 0.56% with U-87MG cells (6 h) and 0.43% in the data set on U-87MG cells (24 h). Further, the Ru cellular uptake was 0.6 ng Ru/mio. cells and 0.60 ± 0.38 ng Ru/mio. cells in the data set on U-87MG cells (6 h incubation); 0.42 ng Ru/mio. cells and 0.42 ± 0.11 ng Ru/mio. cells in the data set with U-87MG cells (24 h incubation). Further, the overall uptake with U-87MG cells (one figure given for 6 and 24 h) came to 0.5%. The molecule also gave a PI on AChE (AChE, IC50 dark / IC50 green light) above 2.2. Besides, on AChE (read-out: IC50,D, isolated AChE, 30 min in the dark, read 35 min after DTNB addition), the IC50 is above 15 µM. Also, the “Ru uptake, Dark” value with SH-SY5Y cells [3] was 0.40 ± 0.25 ng Ru/mio. cells and 0.4 ng Ru/mio. cells. The “Ca uptake, Dark” value in the data set on SH-SY5Y cells [1] (20 μM) is 467.78 ± 122 ng Ca/mio. cells and 467 ng Ca/mio. cells. Further, the “stability in the dark with GSH (UV-vis, in words)” value in [5] is “no change suggesting ligand exchange on ruthenium was observed”.
For `O.[Ru+2].c1ccc(-c2cccc(-c3ccccn3)n2)nc1.c1ccc(-c2ccccn2)nc1` [[4]^2+, [Ru(tpy)(bpy)(OH2)]^2+], the “toxicity (in words)” value (in [6]; in the data set with A375 skin melanoma) was “nontoxic” in each case.
In the case of `Cn1nnc2c(C(N)=O)ncn2c1=O` [temozolomide], the EC50 in [7] was above 100 µM.

The record behind these values is PMC11833736 (ACS Pharmacology & Translational Science, 2025).
